For the assay, the system named is Platelet Activating Factor (PAF)-induced bronchoconstriction. Nature of the assay: Effect on Bronchoconstriction Induced by Platelet Activating Factor (PAF) in Guinea Pigs (Konzett-Rossler method). The class given is in vivo, Male Hartley guinea pigs. The settings on record: guinea pig; drug 10 mg/Kg orally 1 hour before PAF (1 μg/Kg, i.v.); recorded for 15 minutes. On the procedure:
Effect on Bronchoconstriction Induced by Platelet Activating Factor (PAF) in Guinea Pigs
Male Hartley guinea pigs (body weight 500 g) were used. The bronchoconstriction reaction in the guinea pig which has intravenously received PAF (1 μg/Kg) was measured by the Konzett-Rossler method. The trachea of the guinea pig with its back fixed was incised under anesthesia condition with urethane (intraperitoneal injection, 1.50 g/Kg) and connected with an artificial respirator via a cannula. The branch of the tracheal cannula was connected with a transducer (7020 type, Ugobasile). Air was sent to the trachea at the volume of 3-7 ml/stroke, at the stroke of 70 strokes/min. at load pressure of 10 cm H2 O to lung and overflowed air volume was recorded with Rectegraph (Recte-Hori-8s, Sanei Sokuki) via the transducer. After the guinea pig was treated with galamine (1 mg/Kg, i.v.), PAF (1 μg/Kg) dissolved in a physiological saline solution was administered to the guinea pig via a jugular venous cannula and the bronchoconstriction reaction induced thereby was recorded for 15 minutes. The drug (10 mg/Kg) suspended in a 5% gum arabic solution was administered orally 1 hour before the injection of PAF.
For the compound `NS(=O)(=O)CC1(CSc2ccc3nccn3n2)CCC1` [Example 13, 6-[(2,2-trimethylene-3-sulfamoylpropyl)thio]imidazo[1,2-b]pyridazine], the “Inhibition (%) of PAF-induced bronchoconstriction” value (from here on “Inhibition (%)”) is 40%.

On to `NS(=O)(=O)CC1(COc2ccc3nccn3n2)COC1` [Example 9, 6-[[2,2-(2-oxatrimethylene)-3sulfamoylpropyl]oxy]imidazo[1,2-b]pyridazine], for which the “Inhibition (%)” value was 51%.

In the case of `NS(=O)(=O)CC1(COc2ccc3nccn3n2)CCCC1` [Example 2, 6-[(2,2-tetramethylene-3-sulfamoylpropyl)oxy]imidazo[1,2-b]pyridazine], the “Inhibition (%)” value stood at 78%.

As for `NS(=O)(=O)CC1(COc2ccc3nccn3n2)CCC1` [Example 3, 6-[(2,2-trimethylene-3-sulfamoylpropyl)oxy]imidazo[1,2-b]pyridazine], the “Inhibition (%)” value stood at 58%.

In the case of `NS(=O)(=O)CC1(COc2ccc3nccn3n2)CCCCC1` [Example 1, 6-[(2,2-pentamethylene-3-sulfamoylpropyl)oxy]imidazo[1,2-b]pyridazine], the “Inhibition (%)” value is reported as 72%.

Consider `NS(=O)(=O)CC1(COc2ccc3nccn3n2)CC1` [Example 4, 6-[(2,2-dimethylene-3-sulfamoylpropyl)oxy]imidazo[1,2-b]pyridazine], for which the “Inhibition (%)” value turned out to be 48%.

(Values after patent US5145850A, “Imidazopyridazines, their production and use” (Takeda Chemical Industries, Ltd., priority 1990, dated 1992).)
